From patent publication US9802894B2, “α-glucosidase inhibitors” (priority 2015, dated 2017)

Experiments:
[1] = molecular target: α-Glucosidase from Saccharomyces cervisiae; format: biochemical; conditions: in vitro; phosphate buffer pH 6.8, 37° C., substrate 0.7 mM, absorbance at 400 nm; read-out: α-Glucosidase Inhibition (IC50 in μM)
Protocol: Assay Protocol for α-Glucosidase Inhibition (In Vitro α-Glucosidase Inhibition Assay)
α-Glucosidase inhibition assay was performed spectrophotometrically. α-Glucosidase from Saccharomyces cervisiae was dissolved in phosphate buffer (pH 6.8, 50 mM). Test compounds were dissolved in 70% DMSO. In 96-well plates, 20 μL of test sample, 20 μL of enzyme and 135 μL of buffer were added and incubated for 15 minutes at 37° C. After incubation, 25 μL, of p-nitrophenyl-α-D-glucopyranoside (0.7 mM, Sigma Aldrich) was added and the change in absorbance was monitored for 30 minutes at 400 nm. Test compound was replaced by DMSO (7.5% final) as control. Acarbose (Acarbose, Sigma Aldrich) was used as a standard inhibitor.

Row | Compound | IC50 [1] | melting point
1 | O=C(C[C@@H](c1ccccc1)c1c[nH]c2ccccc12)c1ccccc1 [Compound 3a, (S)-3 (1H-Indol-3-yl)-1,3-diphenylpropan-1-one] | 43.3 ± 0.92 µM | –
2 | O=C(C[C@@H](c1ccc(Cl)cc1)c1c[nH]c2ccccc12)c1ccc2ccccc2c1 [Compound 3b, (S)-3-(4-Chlorophenyl)-3-(1H-indol-3-yl)-1-(naphthalen-2-yl)propan-1-one] | 17.6 ± 0.98 µM | 237 to 241 °C
3 | Cc1cc(C)c([C@H](CC(=O)c2ccccc2)c2c[nH]c3ccccc23)c(C)c1 [Compound 3c, (S)-3-(1H-Indol-3-yl)-3-mesityl-1-phenylpropan-1-one] | 25.2 ± 1.96 µM | 169 to 171 °C
4 | Cc1ccc([C@H](CC(=O)c2ccccc2)c2c[nH]c3ccccc23)cc1 [Compound 3d, (S)-3-(1H-Indol-3-yl)-1-phenyl-3-(p-tolyl)propan-1-one] | 24 ± 4 µM | 153 to 155 °C
5 | COc1ccc([C@H](CC(=O)c2ccccc2)c2c[nH]c3ccccc23)cc1 [Compound 3e, (S)-3-(1H-Indol-3-yl)-3-(4-methoxyphenyl)-1-phenylpropan-1-one] | 27.1 ± 0.69 µM | 134 to 136 °C
6 | COc1ccc([C@H](CC(=O)c2ccc3ccccc3c2)c2c[nH]c3ccccc23)cc1 [Compound 3f, (S)-3-(1H-Indol-3-yl)-3-(4-methoxyphenyl)-1-(naphthalen-2-yl)propan-1-one] | 15.2 ± 0.58 µM | 159 to 162 °C
7 | O=C(C[C@@H](c1ccccc1)c1c[nH]c2ccccc12)c1ccc2ccccc2c1 [Compound 3g, (S)-3-(1H-Indol-3-yl)-1-(naphthalen-2-yl)-3-phenylpropan-1-one] | 43.9 ± 0.51 µM | 166 to 169 °C
8 | O=C(C[C@@H](c1ccc(Cl)cc1)c1c[nH]c2ccccc12)c1ccccc1 [Compound 3h, (S)-3-(4-Chlorophenyl)-3-(1H-indol-3-yl)-1-phenylpropan-1-one] | 37.9 ± 0.86 µM | 189 to 192 °C
9 | Cc1cc(C)c([C@H](CC(=O)c2ccc3ccccc3c2)c2c[nH]c3ccccc23)c(C)c1 [Compound 3i, (S)-3-(1H-Indol-3-yl)-3-mesityl-1-(naphthalen-2-yl)propan-1-one] | 15.1 ± 0.4 µM | 227 to 229 °C
10 | Cc1ccc([C@H](CC(=O)c2ccc3ccccc3c2)c2c[nH]c3ccccc23)cc1 [Compound 3j, (S)-3-(1H-Indol-3-yl)-1-(naphthalen-2-yl)-3-(p-tolyl)propan-1-one] | 18.1 ± 1.9 µM | 174 to 177 °C
11 | O=C(C[C@@H](c1cccs1)c1c[nH]c2ccccc12)c1ccccc1 [Compound 3k, (R)-3-(1H-Indol-3-yl)-1-phenyl-3-(thiophen-2-yl)propan-1-one] | 21.8 ± 0.25 µM | 112 to 115 °C
12 | O=C(CC(c1ccc(Cl)cc1Cl)c1c[nH]c2ccccc12)c1ccccc1 (stereo not shown) [Compound 3l, 3-(2,4-dichlorophenyl)-3-(1H-indol-3-yl)-1-phenylpropan-1-one] | 15.6 ± 0.17 µM | 110 to 112 °C
13 | O=C(CC(c1c(Cl)cccc1Cl)c1c[nH]c2ccccc12)c1ccccc1 (stereo not shown) [Compound 3m, 3-(2,6-dichlorophenyl)-3-(1H-indol-3-yl)-1-phenylpropan-1-one] | 4.3 ± 0.13 µM | 119 to 121 °C
14 | Cc1cccc(C(CC(=O)c2ccccc2)c2c[nH]c3ccccc23)c1 (stereo not shown) [Compound 3n, 3-(1H-indol-3-yl)-1-phenyl-3-(m-tolyl)propan-1-one] | 26.3 ± 0.48 µM | 130 to 132 °C
15 | O=C(CC(c1cccs1)c1c[nH]c2ccccc12)c1ccc2ccccc2c1 (stereo not shown) [Compound 3o, 3-(1H-indol-3-yl)-1-(naphthalen-2-yl)-3-(thiophen-2-yl)propan-1-one] | 11.8 ± 0.06 µM | –
16 | O=C(CC(c1cccc([N+](=O)[O-])c1)c1c[nH]c2ccccc12)c1ccccc1 (stereo not shown) [Compound 3p, 3-(1H-indol-3-yl)-3-(3-nitrophenyl)-1-phenylpropan-1-one] | 34.6 ± 1.55 µM | 105 to 107 °C
17 | O=C(CC(c1ccc(Br)cc1)c1c[nH]c2ccccc12)c1ccccc1 (stereo not shown) [Compound 3q, 3-(4-bromophenyl)-3-(1H-indol-3-yl)-1-phenylpropan-1-one] | 24.9 ± 1.61 µM | 95 to 97 °C
18 | O=C(CC(c1cccc(Br)c1)c1c[nH]c2ccccc12)c1ccccc1 (stereo not shown) [Compound 3r, 3-(3-bromophenyl)-3-(1H-indol-3-yl)-1-phenylpropan-1-one] | 33.2 ± 0.75 µM | 102 to 104 °C
